Broadly, the IC50 is the midpoint of a concentration-inhibition curve.

Molecules are shown by their SMILES.

Inhibition and IC50 data for 59 compounds are collected here from patent publication US7101878B1 (Agouron Pharmaceuticals, Inc., priority 1998, dated 2006).

One assay addresses T1, human GnRH receptor (Homo sapiens, UniProt P30968).
T1 construct: expressed in transfected cells; host or cells: HEK 293 (hGnRH-R/293, from Dr. Stuart Sealfon)
T1 sequence (P30968 1-328): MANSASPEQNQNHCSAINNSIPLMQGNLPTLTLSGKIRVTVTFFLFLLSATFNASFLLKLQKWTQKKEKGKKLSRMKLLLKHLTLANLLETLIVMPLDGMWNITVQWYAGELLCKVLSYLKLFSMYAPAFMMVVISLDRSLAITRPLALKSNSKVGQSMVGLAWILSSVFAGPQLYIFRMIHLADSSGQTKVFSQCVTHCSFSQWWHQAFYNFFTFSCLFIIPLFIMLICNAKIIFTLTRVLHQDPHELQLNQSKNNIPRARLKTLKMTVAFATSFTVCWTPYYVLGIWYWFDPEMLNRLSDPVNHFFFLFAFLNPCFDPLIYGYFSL
Kind of assay: Radioligand binding, 125I-GnRH-A displacement, membranes of HEK 293 cells with human GnRH receptor. Particulars: 1 uM; read-out: % Inhib. @ 1 uM hGnRH. In a few lines: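 Bound tracer was separated by filtration through polyethyleneimine-soaked GF/C filters and counted by liquid scintillation. IC50 from curve fitting; other species were tested under the same conditions.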
Take `Cc1cc2c(cc1Cc1ccc(C(=O)NC(C)C(O)c3ccccc3)o1)C(C)(C)CCC2(C)C` (centres unmarked): the inhibition at 1 µM turned out to be 12%. The same measure, in the same setting: to `Cc1cc2c(cc1Cc1ccc(C(=O)N[C@H](C)[C@H](O)c3ccc(O)cc3)o1)C(C)(C)CCC2(C)C` belongs -2%. In the case of `Cc1cc2c(cc1Cc1ccc(C(=O)NCC(O)c3ccc(O)cc3)o1)C(C)(C)CCC2(C)C` (centres unmarked), the inhibition at 1 µM worked out at 25%. For `Cc1cc2c(cc1Cc1ccc(C(=O)N[C@@H](CO)Cc3ccc(O)cc3)o1)C(C)(C)CCC2(C)C`, the inhibition at 1 µM was -12%.

Still in this assay, the particulars now being: 10 uM, repeat; read-out: Repeats @ 10 uM hGnRH (% inhib.).
For `Cc1cc2c(cc1Cc1ccc(C(=O)Nn3c(O)nnc3-c3ccccc3)o1)C(C)(C)CCC2(C)C`, the inhibition at 10 µM is -25%.

As for `Cc1cc2c(cc1Cc1ccc(C(=O)NN3C(=O)c4ccccc4C3=O)o1)C(C)(C)CCC2(C)C`, the inhibition at 10 µM is -20%. Same read-out and setting: to `Cc1cc2c(cc1Cc1ccc(C(=O)Nn3c(O)nnc3-c3ccncc3)o1)C(C)(C)CCC2(C)C` belongs -28%. As to `Cc1ccc2nc(C)n(NC(=O)c3ccc(Cc4cc5c(cc4C)C(C)(C)CCC5(C)C)o3)c(=O)c2c1`, the inhibition at 10 µM is -4%. On to `Cc1cc2c(cc1Cc1ccc(C(=O)Nn3c(N)nc(C(F)(F)F)cc3=O)o1)C(C)(C)CCC2(C)C`, for which the inhibition at 10 µM was -5%.

The same assay, now with this note: 10 uM; read-out: % inhib. @ 10 uM hGnRH.
As for `Cc1cc2c(cc1Cc1ccc(C(=O)Nn3c(O)nnc3-c3ccccc3)o1)C(C)(C)CCC2(C)C`, the inhibition at 10 µM was -25%. Still for that read-out and setting: for `Cc1cc2c(cc1Cc1ccc(C(=O)NN3C(=O)c4ccccc4C3=O)o1)C(C)(C)CCC2(C)C` the value was -15%; for `Cc1cc2c(cc1Cc1ccc(C(=O)Nn3c(O)nnc3-c3ccncc3)o1)C(C)(C)CCC2(C)C`, -17%.

With `Cc1ccc2nc(C)n(NC(=O)c3ccc(Cc4cc5c(cc4C)C(C)(C)CCC5(C)C)o3)c(=O)c2c1`, the inhibition at 10 µM was -4%. Still for that read-out and setting: for `Cc1cc2c(cc1Cc1ccc(C(=O)Nn3c(N)nc(C(F)(F)F)cc3=O)o1)C(C)(C)CCC2(C)C` the value was -10%.

The assay is the same for the next values; noted with them: 1 h, repeat of % Inhib. at 1 uM; read-out: Repeats @ 1 uM hGnRH.
In the case of `Cc1cc2c(cc1Cc1ccc(C(=O)NC(C)C(O)c3ccccc3)o1)C(C)(C)CCC2(C)C` (centres unmarked), the inhibition at 1 µM is 14%.

As to `Cc1cc2c(cc1Cc1ccc(C(=O)N[C@H](C)[C@H](O)c3ccc(O)cc3)o1)C(C)(C)CCC2(C)C`, the inhibition at 1 µM turned out to be 6%. On the same count and under the same terms, to `Cc1cc2c(cc1Cc1ccc(C(=O)NCC(O)c3ccc(O)cc3)o1)C(C)(C)CCC2(C)C` (centres unmarked) belongs 28%. On the same count and under the same terms, to `Cc1cc2c(cc1Cc1ccc(C(=O)N[C@@H](CO)Cc3ccc(O)cc3)o1)C(C)(C)CCC2(C)C` belongs -9%.

The same assay, now with this note: read-out: hGnRH IC50.
`COc1cc(OC)c(NC(=O)c2ccc(C(O)c3cc4c(cc3C)C(C)(C)CCC4(C)C)o2)c(OC)c1` (centres unmarked) [AXC- 07047]: the IC50 turned out to be 1410 nM. Same read-out and setting: to `COc1cc(C)c(Cl)c(C)c1Cc1ccc(C(N)=O)o1` [AXC- 07450] belongs > 10000 nM; to `CCN(CC)S(=O)(=O)c1ccc(OC)c(NC(=O)c2ccc(Cc3cc4c(cc3C)C(C)(C)CCC4(C)C)o2)c1` [Compound 26], 1010 nM. On the same count and under the same terms, to `Cc1cc2c(cc1Cc1ccc(C(=O)NCCCNC(=O)c3ccc(Cc4cc5c(cc4C)C(C)(C)CCC5(C)C)o3)o1)C(C)(C)C=CC2(C)C` [Compound 27] belongs > 10000 nM. The same measure, in the same setting: for `Cc1cc2c(cc1Cc1ccc(C(=O)NCCCCCCNC(=O)c3ccc(Cc4cc5c(cc4C)C(C)(C)CCC5(C)C)o3)o1)C(C)(C)CCC2(C)C` [Compound 28] the value was > 10000 nM. In the case of `Cc1cc2c(cc1Cc1ccc(C(=O)Nc3ccc(S(=O)(=O)Nc4nccs4)cc3)o1)C(C)(C)CCC2(C)C` [Compound 29], the IC50 is 1420 nM. As to `Cc1cc2c(cc1Cc1ccc(C(=O)N3CCN(c4ncccn4)CC3)o1)C(C)(C)CCC2(C)C` [Compound 30.5], the IC50 turned out to be 5030 nM. As to `Cc1cc2c(cc1Cc1ccc(C(=O)Nc3ccc(N4CCOCC4)cc3)o1)C(C)(C)CCC2(C)C` [Compound 30], the IC50 was 1350 nM. Regarding `CCOC(=O)Cc1ccc(NC(=O)c2ccc(Cc3cc4c(cc3C)C(C)(C)CCC4(C)C)o2)cc1` [Compound 32], the IC50 came out at 3800 nM. Still for that read-out and setting: for `Cc1cc2c(cc1Cc1ccc(C(=O)Nc3ccc(CC(=O)O)cc3)o1)C(C)(C)CCC2(C)C` [Compound 33] the value was 5300 nM. The same measure, in the same setting: to `N=C(N)NC[C@H]1CC[C@H](CNC(=O)c2ccc(Cc3ccccc3)o2)CC1` [Compound 34] belongs > 10000 nM; to `Cc1cc2c(cc1Cc1ccc(C(=O)NCC3CCN(C(=N)N)CC3)o1)C(C)(C)CCC2(C)C` [Compound 35], 1200 nM; to `Cc1cnc(CNC(=O)c2cccc(Cc3cc4c(cc3C)C(C)(C)CCC4(C)C)c2)cn1` [Compound 37.5], 7800 nM.

On to `CNC(=O)c1ccc(Cc2cc3c(cc2C)C(C)(C)CCC3(C)C)o1` [Compound 37], for which the IC50 stood at 2100 nM. Still for that read-out and setting: to `Cc1cc2c(cc1Cc1ccc(C(=O)N3C[C@@H]4CCCC[C@@H]4CC3C(=O)NC(C)(C)C)o1)C(C)(C)CCC2(C)C` (some centres unmarked) [Compound 38.5] belongs > 10000 nM; to `COCCNC(=O)c1ccc(Cc2cc3c(cc2C)C(C)(C)CCC3(C)C)o1` [Compound 40], 530 nM; to `Cc1cnc(CNC(=O)c2ccc(Cc3ccccc3)o2)cn1` [Compound 45], > 10000 nM. Same read-out and setting: for `Cc1cc2c(cc1Cc1ccc(C(=O)NCc3ccc(C(C)(C)C)cc3)o1)C(C)(C)CCC2(C)C` [Compound 49] the value was 3700 nM; for `Cc1cc2c(cc1Cc1ccc(C(=O)NCCc3cccc(F)c3)o1)C(C)(C)CCC2(C)C` [Compound 54], 680 nM; for `Cc1cc2c(cc1Cc1ccc(C(=O)NCCc3ccccc3Cl)o1)C(C)(C)CCC2(C)C` [Compound 55], 570 nM. Consider `Cc1cc2c(cc1Cc1ccc(C(=O)NC[C@H]3CCCO3)o1)C(C)(C)CCC2(C)C` [Compound 57], for which the IC50 was determined as 830 nM.

Consider `Cc1cc2c(cc1Cc1ccc(C(=O)NC[C@@H]3CCCO3)o1)C(C)(C)CCC2(C)C` [Compound 58], for which the IC50 was 205 nM. The same measure, in the same setting: for `Cc1cc2c(cc1Cc1ccc(C(=O)NCC3CN(Cc4ccccc4)CCO3)o1)C(C)(C)CCC2(C)C` (centres unmarked) [Compound 59] the value was 980 nM; for `Cc1cnc(CNC(=O)c2ccc(Cc3ccc4c(c3)C(C)(C)CCC4(C)C)o2)cn1` [Compound 60], 4200 nM. As for `COc1cccc(C)c1NC(=O)c1ccc(Cc2cc3c(cc2C)C(C)(C)CCC3(C)C)o1` [Compound 61], the IC50 was found to be 760 nM. As for `Cc1cc2c(cc1Cc1ccc(C(=O)Nc3ccc(OCc4ccccc4)c(OCc4ccccc4)c3)o1)C(C)(C)CCC2(C)C` [Compound 62], the IC50 is > 10000 nM. The same measure, in the same setting: for `Cc1cc2c(cc1Cc1ccc(C(=O)NCCNc3nccc(NCC4CCCO4)n3)o1)C(C)(C)CCC2(C)C` (centres unmarked) [Compound 63] the value was 2500 nM; for `Cc1cc2c(cc1Cc1ccc(C(=O)NCCSCCCc3ccc(CN(C)C)o3)o1)C(C)(C)CCC2(C)C` [Compound 65], 710 nM; for `Cc1cc2c(cc1Cc1ccc(C(=O)NCc3cccc(-c4ccccc4)c3)o1)C(C)(C)CCC2(C)C` [Compound 66], 3500 nM. Same read-out and setting: for `Cc1cc2c(cc1Cc1ccc(C(=O)NCCCCNc3nccc(NCC4CCCO4)n3)o1)C(C)(C)CCC2(C)C` (centres unmarked) [Compound 69] the value was 1410 nM. On to `COc1cc(OC)nc(NCC2CCC(CNC(=O)c3ccc(Cc4cc5c(cc4C)C(C)(C)CCC5(C)C)o3)CC2)n1` (centres unmarked) [Compound 71], for which the IC50 was 2000 nM. As for `Cc1cc2c(cc1Cc1ccc(C(=O)Nc3cccc(CO)c3)o1)C(C)(C)CCC2(C)C` [Compound 121], the IC50 stood at 1100 nM. Still for that read-out and setting: for `Cc1ccc([C@H](C)NC(=O)c2ccc(Cc3cc4c(cc3C)C(C)(C)CCC4(C)C)o2)cc1` [Compound 123] the value was 510 nM. On the same count and under the same terms, for `COC(CNC(=O)c1ccc(Cc2cc3c(cc2C)C(C)(C)CCC3(C)C)o1)OC` [Compound 131] the value was 600 nM. `CCCOCCNC(=O)c1ccc(Cc2cc3c(cc2C)C(C)(C)CCC3(C)C)o1` [Compound 132]: the IC50 is 640 nM. On to `Cc1cc2c(cc1Cc1ccc(C(=O)NCCC3OCCO3)o1)C(C)(C)CCC2(C)C` [Compound 133], for which the IC50 stood at 490 nM. Still for that read-out and setting: for `CCN(CC)CCOC(=O)c1ccc(NC(=O)c2ccc(Cc3cc4c(cc3C)C(C)(C)CCC4(C)C)o2)cc1` [Compound 135] the value was 1440 nM. Turning to `Cc1cc2c(cc1Cc1ccc(C(=O)NCc3cccc(CNc4ncnc5scc(C)c45)c3)o1)C(C)(C)CCC2(C)C` [Compound 142], the IC50 was 3000 nM. With `Cc1cc2c(cc1Cc1ccc(C(=O)NCc3cccc(CNc4nccc(C(F)(F)F)n4)c3)o1)C(C)(C)CCC2(C)C` [Compound 143], the IC50 stood at 1870 nM.

For the compound `Cc1cc(NCc2cccc(CNC(=O)c3ccc(Cc4cc5c(cc4C)C(C)(C)CCC5(C)C)o3)c2)nc(N)n1` [Compound 144], the IC50 was 230 nM. On the same count and under the same terms, to `Cc1cc2c(cc1Cc1ccc(C(=O)NCc3cccc(CNc4cc(Cl)nc(N)n4)c3)o1)C(C)(C)CCC2(C)C` [Compound 145] belongs 200 nM.

`COc1cccc(OC)c1NC(=O)c1ccc(Cc2cc3c(cc2C)C(C)(C)CCC3(C)C)s1` [Compound 146]: the IC50 is > 10000 nM.

For `Cc1cc2c(cc1Cc1ccc(C(=O)NCc3cccc(CNc4ncnc5c(C)csc45)c3)o1)C(C)(C)CCC2(C)C` [Compound 149], the IC50 was found to be 360 nM.

Consider `Cc1cc2c(cc1Cc1ccc(C(=O)NC3CCC(Nc4nccc(NCC5CCCO5)n4)CC3)o1)C(C)(C)CCC2(C)C` (centres unmarked) [Compound 152], for which the IC50 turned out to be 700 nM.

As for `Cc1cc2c(cc1Cc1ccc(C(=O)NCc3cccc(CNc4ncc(F)c(N)n4)c3)o1)C(C)(C)CCC2(C)C` [Compound 157], the IC50 was determined as 620 nM. Same read-out and setting: for `COC(=O)c1cc(C)nc(NCc2cccc(CNC(=O)c3ccc(Cc4cc5c(cc4C)C(C)(C)CCC5(C)C)o3)c2)n1` [Compound 158] the value was 1090 nM. On the same count and under the same terms, to `COc1ccccc1NC(=O)c1ccc(Cc2cc3c(cc2C)C(C)(C)CCC3(C)C)o1` [Compound 160] belongs 390 nM; to `CSc1ccccc1NC(=O)c1ccc(Cc2cc3c(cc2C)C(C)(C)CCC3(C)C)o1` [Compound 161], 300 nM; to `Cc1cc2c(cc1Cc1ccc(C(=O)NCC(=O)O)o1)C(C)(C)CCC2(C)C` [Compound 162], > 10000 nM. For the compound `Cc1ncc(CNC(=O)c2ccc(Cc3cc4c(cc3C)C(C)(C)CCC4(C)C)o2)c(N)n1` [Compound 163], the IC50 turned out to be 1960 nM.
